Laboratory results from US20090203661A1, “Betulinic acid, derivatives and analogs thereof and uses therefor” (priority 2006, published 2009).
pIC50: −log10 of the molar value. Like-named read-outs stand apart in the source and are kept apart here.

What was measured:
[1] = test system: PPARγ; experiment: PPARγ transactivation (PPARγ-GAL4/pGAL4, PPRE3-luc) in Panc-28 cells; assay type: cell-based
Protocol: (§1) Cells were seeded onto the 12-well plates and 0.4 μg of GAL4-Luc, 0.04 μg of β-GAL, 0.04 μg of GAL4DBD-PPARγ, and 0.4 μg of p21-luc(FL) containing −2325 to +8 insert, 0.4 μg of p21-luc (−124) containing −124 to +8 insert and 0.4 μg of p21-LUC (−60) containing −60 to +8 insert were transfected using LipofectAMINE reagent (Invitrogen) following the manufacturer's protocol. Cells were treated either with vehicle or respective compounds suspended in complete medium after 6 hr of transfection. Cell lysate is extracted after 20-22 hr by adding 100 μl of 1× reporter lysis buffer per well and 30 μl of this extract is used to quantitate the luciferase activity using Lumicount (Perkin-Elmer Life and Analytical Sciences). Each experiment is done in triplicate and the results are normalized to the β-GAL activity.

[2] = test system: HT-29 cells; experiment: KLF4 mRNA (RT-PCR) in HT-29 cells; assay type: cell-based, human; settings: for KLF4 mRNA levels: HT-29; for effect of T007 on induction of KLF4 mRNA: HT-29, cotreatment with T007
Protocol: SW480 and HT29 colon cancer cells were treated either with vehicle (DMSO) or indicated compounds and after 24 hr total RNA was extracted using RNeasy Mini kit (Qiagen, Inc., Valencia, Calif.). RNA concentration was measured by UV 260:280 nm absorption ratio and 2 μg RNA was used to synthesize cDNA using Reverse Transcription System (Promega). PCR conditions were as follows: initial denaturation at 94° C. (1 min) followed by 28 cycles of denaturation for 30 s at 94° C., annealing for 60 s at 55° C. and extension at 72° C. for 60 s and a final extension step at 72° C. for 5 min. The mRNA levels were normalized using GAPDH as an internal housekeeping gene. Primers obtained from IDT and used for amplification are as follows: KLF4 (sense 5′-CTATGGCAGGGAGTCCGCTCC-3′ (SEQ ID NO: 1); antisense 5′-ATGACCGACGGGCTGCCGTAC-3′ (SEQ ID NO: 2)) and GAPDH (sense 5′-ACGGATTTGGTCGTATTGGGCG-3′ (SEQ ID NO: 3); antisense 5′-CTCCTGGAAGATGGTGATGG-3′ (SEQ ID NO: 4). PCR products were electrophoresed on 1% agarose gels containing ethidium bromide and visualized under UV transillumination.

[3] = test system: Panc-28 cells; experiment: Western blot of p21, p27, cyclin D1 in Panc-28 cells; assay type: cell-based, human; settings: for effect of T007 on induction of p21 protein: 5 μM compound plus 10 μM T007; for cyclin D1 expression / p27 expression: Panc-28; for p21 protein expression: Panc-28, 24 hr
Protocol: SW480, HT-29, HCT-15 and Panc-28 (3×10^5) colon cancer cells were seeded in 6-well tissue culture plates in DMEM/Ham's F-12 medium containing 2.5% charcoal-stripped FBS. Protein is extracted from the cells treated either with vehicle or indicated compounds suspended for 24 hr except for caveolin-1 protein which was done for 72 hr. Samples were extracted in high salt buffer [50 mmol/L HEPES, 500 mmol/L NaCl, 1.5 mmol/L MgCl2, 1 mmol/L EGTA, 10% glycerol, and 1% Triton X-100 (pH 7.5), and 5 μL/mL protease inhibitor cocktail (Sigma-Aldrich)]. Samples were incubated at 100° C. for 2 min, separated on either 10% or 12% SDS-PAGE gels and then transferred to polyvinylidene difluoride membrane (PVDF; Bio-Rad, Hercules, Calif.). The PVDF membrane was blocked in 5% TBST-Blotto (10 mM Tris HCl, 150 mM NaCl, pH 8.0, 0.05% Triton X-100, and 5% nonfat dry milk) for about 30 min and was then incubated in fresh 5% TBST-Blotto with 1:1000 for caveolin-1 (Santa Cruz Biotechnology, Santa Cruz, Calif.), 1:1000 for p21 (BD Pharmingen, Frank lakes, NJ) and 1:10000 for β-actin (Sigma) primary antibody overnight with gentle shaking at 4° C. After washing with TBST for 10 min, the membrane was incubated with respective secondary antibody (1:5000) (Santa cruz, Calif.) in 5% TBST-Blotto for 3 hr. The membrane is then washed with TBST for 10 min, incubated with chemiluminiscence reagent from Perkin Elmer for one min and then exposed to Kodak X-OMAT AR autoradiography film (Eastman Kodak, Rochester, N.Y.).

[4] = test system: SW480 cells; experiment: Cell proliferation assay, SW480 cells; assay type: cell-based, human; settings: read-out: IC50 values, inhibition of growth
Protocol: SW480, HT-29 and HCT-15 human colon cancer cells were provided by Dr. Stan Hamilton (M. D. Anderson Cancer Center (Houston, Tex.). Panc-28 human pancreatic cancer cells and 3T3-L1 pre-adipocytes were obtained from American Type Culture Collection (Manassas, Va.). SW480, HT-29 and Panc-28 cells were maintained in Dulbecco's modified/Ham's F-12 (Sigma-Aldrich, St Louis, Mo.) with phenol red supplemented with 0.22% sodium bicarbonate, 0.011% sodium pyruvate, 5% fetal bovine serum, and 10 mL/L 100× antibiotic antimycotic solution (Sigma). HCT-15 cells were maintained in RPMI 1640 (Sigma) supplemented with 0.22% sodium bicarbonate, 0.011% sodium pyruvate, 0.45% glucose, 0.24% HEPES, 10% fetal bovine serum, and 10 mL/L of 100× antibiotic antimycotic solution (Sigma). Cells were maintained at 37° C. in the presence of 5% CO2.
This assay is performed in 12-well tissue culture plates at the concentration of 2×10^4 cells per well, using DMEM/Ham's F-12 media containing 2.5% charcoal stripped FBS. The cells were counted on the initial day using a Z1 cell counter (Beckman Coulter, Fullerton, Calif.) and then were treated either with vehicle (DMSO) or the indicated triterpenoid compounds, each sample in triplicate. Every 48 hr, fresh medium was added along with the indicated compounds. The count of the cells was taken after 2, 4 and 6 days. The results are expressed as means±S.E for each set of triplicate.

[5] = test system: PPARγ; experiment: PPARγ transactivation (PPARγ-GAL4/pGAL4, PPRE3-luc) in SW480 cells; assay type: cell-based; settings: for transactivation, PPARγ-GAL4/pGAL4 and PPRE3-luc: SW480, 2.5-10 μM; for effect of PPARγ antagonist T007 on induced activities: SW480, cotreatment with T007
Protocol: as §1

Row | pIC50 [4] | pIC50 ([4]; Homo sapiens) | Structure (SMILES) | luciferase activity, PPARγ-GAL4/pGAL4 and PPRE3-luc ([1]; Panc-28) | effect of T007 on induced luciferase activity ([1]; Panc-28, cotreatment with T007) | KLF4 mRNA levels [2] | effect of T007 on induction of KLF4 mRNA [2] | effect of T007 on induction of p21 protein [3] | cyclin D1 expression [3] | p27 expression [3] | p21 protein expression [3] | transactivation, PPARγ-GAL4/pGAL4 and PPRE3-luc [5] | effect of PPARγ antagonist T007 on induced activities [5] | induction, PPARγ-GAL4/pGAL4 ([1]; Panc-28) | induction, PPRE3-luc ([1]; Panc-28, data not shown)
1 | 6.00 | – | CC(C)C1CCC2(C(=O)O)CCC3(C)C(CCC4C5(C)C=C(C#N)C(=O)C(C)(C)C5CCC43C)C12 (stereo not drawn) [CN-BA] | induced luciferase activity | inhibited | induced KLF4 mRNA levels | did not inhibit | significantly inhibited | downregulation of cyclin D1 | induction of p27 | induce p21 protein expression | induced transactivation | inhibited by T007 | – | –
2 | 5.60 to 6.00 | – | COC(=O)C12CCC(C(C)C)C1C1CCC3C4(C)C=C(C#N)C(=O)C(C)(C)C4CCC3(C)C1(C)CC2 (stereo not drawn) [CN-BA-Me, Methyl 2-cyano-lup-1-en-3-oxo-20-oate] | – | – | induced KLF4 mRNA levels | did not inhibit | significantly inhibited | downregulation of cyclin D1 | induction of p27 | induce p21 protein expression | induced transactivation | inhibited by T007 | minimal induction | no induction
3 | – | 5.30 to 6.00 | C=C(C)[C@@H]1CC[C@]2(C(=O)O)CC[C@]3(C)[C@H](CC[C@@H]4[C@@]5(C)CC[C@H](O)C(C)(C)[C@@H]5CC[C@]43C)[C@@H]12 [betulinic acid, Betulinic acid] | inactive | – | – | did not inhibit | not inhibited | – | – | – | inactive | – | – | –
